From article PMC10882719 (Frontiers in Neuroscience, 2024)
Like-named read-outs stand apart in the source and are kept apart here.

Tests used:
Assay type in all cases: cell-based
[1] = target: T1, 168 GPCRs (Homo sapiens, UniProt P35414)
T1 construct: host or cells: PathHunter cell lines
T1 sequence (P35414 1-380): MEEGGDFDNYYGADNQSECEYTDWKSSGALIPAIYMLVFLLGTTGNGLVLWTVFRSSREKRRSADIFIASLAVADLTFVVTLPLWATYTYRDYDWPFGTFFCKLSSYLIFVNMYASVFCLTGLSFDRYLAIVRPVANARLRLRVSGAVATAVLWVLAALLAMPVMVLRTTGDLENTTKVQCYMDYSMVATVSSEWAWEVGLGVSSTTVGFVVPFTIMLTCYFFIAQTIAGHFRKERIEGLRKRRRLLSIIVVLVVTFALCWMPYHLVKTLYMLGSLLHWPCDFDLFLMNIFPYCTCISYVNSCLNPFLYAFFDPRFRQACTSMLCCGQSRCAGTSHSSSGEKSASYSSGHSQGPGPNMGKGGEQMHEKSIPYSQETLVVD

[2] = target: T2, 168 GPCRs (Homo sapiens, UniProt Q9UBY5)
T2 construct: host or cells: PathHunter cell lines
T2 sequence (Q9UBY5 1-353): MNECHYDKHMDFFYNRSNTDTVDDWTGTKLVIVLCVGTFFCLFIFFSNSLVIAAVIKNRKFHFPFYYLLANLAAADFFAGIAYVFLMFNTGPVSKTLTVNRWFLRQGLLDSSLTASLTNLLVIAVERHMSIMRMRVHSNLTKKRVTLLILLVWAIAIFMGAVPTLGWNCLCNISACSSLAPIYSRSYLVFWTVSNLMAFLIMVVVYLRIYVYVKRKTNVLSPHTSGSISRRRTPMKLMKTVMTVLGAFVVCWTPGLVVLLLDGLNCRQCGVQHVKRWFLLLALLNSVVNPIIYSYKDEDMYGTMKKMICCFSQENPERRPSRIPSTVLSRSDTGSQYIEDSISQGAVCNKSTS

[3] = target: T3, 168 GPCRs (Homo sapiens, UniProt P21730)
T3 construct: host or cells: PathHunter cell lines
T3 sequence (P21730 1-350): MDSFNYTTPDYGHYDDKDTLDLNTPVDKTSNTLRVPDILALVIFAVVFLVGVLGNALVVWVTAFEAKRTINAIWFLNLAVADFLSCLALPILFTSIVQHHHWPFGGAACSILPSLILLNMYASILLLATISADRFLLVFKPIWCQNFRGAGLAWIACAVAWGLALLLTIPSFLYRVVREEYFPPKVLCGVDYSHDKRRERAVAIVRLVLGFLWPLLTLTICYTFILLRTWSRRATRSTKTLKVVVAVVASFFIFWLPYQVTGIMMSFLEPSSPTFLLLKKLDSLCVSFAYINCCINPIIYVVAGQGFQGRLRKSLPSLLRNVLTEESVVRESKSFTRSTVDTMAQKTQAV

[4] = target: T4, 168 GPCRs (Homo sapiens, UniProt P41143); details: OPRD1
T4 construct: host or cells: PathHunter cell lines
T4 sequence (P41143 whole entry): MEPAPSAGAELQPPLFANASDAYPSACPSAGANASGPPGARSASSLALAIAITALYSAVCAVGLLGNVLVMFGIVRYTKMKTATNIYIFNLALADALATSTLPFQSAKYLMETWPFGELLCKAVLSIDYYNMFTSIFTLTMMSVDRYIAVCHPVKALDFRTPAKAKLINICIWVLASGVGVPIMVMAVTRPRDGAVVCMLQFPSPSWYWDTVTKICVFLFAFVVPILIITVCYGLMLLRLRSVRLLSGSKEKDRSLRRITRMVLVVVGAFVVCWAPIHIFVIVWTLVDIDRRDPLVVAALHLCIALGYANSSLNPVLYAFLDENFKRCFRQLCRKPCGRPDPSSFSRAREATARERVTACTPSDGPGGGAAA

[5] = target: T5, 168 GPCRs (Homo sapiens, UniProt O43614)
T5 construct: host or cells: PathHunter cell lines
T5 sequence (O43614 1-444): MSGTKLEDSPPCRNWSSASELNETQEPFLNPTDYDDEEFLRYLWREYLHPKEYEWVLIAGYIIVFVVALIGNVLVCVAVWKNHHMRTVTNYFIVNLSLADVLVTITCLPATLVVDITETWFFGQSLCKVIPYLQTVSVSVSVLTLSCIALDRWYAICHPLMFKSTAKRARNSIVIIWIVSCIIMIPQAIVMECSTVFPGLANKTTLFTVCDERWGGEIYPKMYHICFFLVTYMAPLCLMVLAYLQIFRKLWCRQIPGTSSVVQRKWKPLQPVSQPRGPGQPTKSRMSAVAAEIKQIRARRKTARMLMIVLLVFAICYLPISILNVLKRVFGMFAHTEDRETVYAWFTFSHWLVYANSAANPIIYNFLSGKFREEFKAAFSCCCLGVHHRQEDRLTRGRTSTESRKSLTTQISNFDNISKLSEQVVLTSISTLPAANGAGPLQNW

[6] = target: T6, 168 GPCRs (Homo sapiens, UniProt P51582); details: P2RY4
T6 construct: host or cells: PathHunter cell lines
T6 sequence (P51582 whole entry): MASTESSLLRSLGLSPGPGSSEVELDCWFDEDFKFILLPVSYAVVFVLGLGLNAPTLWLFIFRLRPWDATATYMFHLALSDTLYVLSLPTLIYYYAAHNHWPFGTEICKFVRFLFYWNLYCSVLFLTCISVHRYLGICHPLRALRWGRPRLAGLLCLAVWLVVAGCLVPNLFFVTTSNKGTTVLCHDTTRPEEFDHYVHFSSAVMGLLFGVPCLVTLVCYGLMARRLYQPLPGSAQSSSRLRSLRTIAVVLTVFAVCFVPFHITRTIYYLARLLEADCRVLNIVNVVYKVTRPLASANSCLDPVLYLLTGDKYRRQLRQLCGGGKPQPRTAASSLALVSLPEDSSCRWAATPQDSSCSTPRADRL

Row | SMILES | % Agonist Activity ([1]; AGTRL1, 1 uM) [%] | % Antagonist Activity ([1]; AGTRL1, 1 uM) [%] | % Agonist Activity ([1]; AGTRL1, 10 uM) [%] | % Antagonist Activity ([1]; AGTRL1, 10 uM) [%] | % Agonist Activity ([2]; EDG7, 1 uM) [%] | % Antagonist Activity ([2]; EDG7, 1 uM) [%] | % Agonist Activity ([2]; EDG7, 10 uM) [%] | % Antagonist Activity ([2]; EDG7, 10 uM) [%] | % Agonist Activity ([3]; C5aR1, 1 uM) [%] | % Antagonist Activity ([3]; C5aR1, 1 uM) [%] | % Agonist Activity ([3]; C5aR1, 10 uM) [%] | % Antagonist Activity ([3]; C5aR1, 10 uM) [%] | % Agonist Activity ([4]; Conc 1 uM) [%] | % Antagonist Activity ([4]; Conc 1 uM) [%] | % Agonist Activity ([4]; Conc 10 uM) [%] | % Antagonist Activity ([4]; Conc 10 uM) [%] | % Agonist Activity ([5]; HCRTR2, 1 uM) [%] | % Antagonist Activity ([5]; HCRTR2, 1 uM) [%] | % Agonist Activity ([5]; HCRTR2, 10 uM) [%] | % Antagonist Activity ([5]; HCRTR2, 10 uM) [%] | other results
1 | CNC(C)Cc1ccc2c(c1)OCO2 (stereo not drawn) [MDMA, 3,4-Methylenedioxy methamphetamine, reference compound] | -0.8 | -13.4 | -0.2 | -8.4 | -2.8 | -7 | -2.4 | 0.8 | -1.1 | -5.5 | -1.1 | -4.3 | -0.7 | -15.5 | -1.1 | -17.6 | -0.3 | 5.9 | -0.1 | -3.5 | % Agonist Activity ([6]; Conc 1 uM): -4.2%; % Antagonist Activity ([6]; Conc 1 uM): 5.7%; % Agonist Activity ([6]; Conc 10 uM): -7.2%; % Antagonist Activity ([6]; Conc 10 uM): -0.6%
2 | CNC(C)C(=O)c1ccc2c(c1)OCO2 (stereo not drawn) [methylone] | -0.9 | -3.3 | -1.5 | -4.1 | 3 | 19.5 | 1.1 | 17.9 | -1 | 8.9 | -1.3 | 5 | -2 | -2.7 | -1.5 | 3.5 | 0.2 | 6.4 | 0.2 | 2.4 | % Agonist Activity ([6]; Conc 1 uM): -3.3%; % Antagonist Activity ([6]; Conc 1 uM): 15.1%; % Agonist Activity ([6]; Conc 10 uM): -4.1%; % Antagonist Activity ([6]; Conc 10 uM): 17.5%
